In test [1] the target is T1, 5-HT2B receptor (Homo sapiens, UniProt P41595).
T1 construct: host or cells: CHO-K1
The experiment in a line: 5-HT2B receptor agonism, IP-1 accumulation in CHO-K1 cells without prior 5-HT stimulation. Particulars: % of IP-1 accumulation induced by 5-HT (1 uM). The test is classed as cell-based. Here is the method:
(§1) 5-HT2B receptor antagonism (performed at Eurofins Panlabs Taiwan, Ltd.) was determined in CHO-K1 cells expressing human receptor protein as inhibition of 5-HT (5 nM) stimulated IP-1 accumulation measured by HTRF quantitation. SB 206553 was used as a standard reference compound. The antagonistic response is expressed as % inhibition of the 5-HT induced effect.
5-HT2B receptor agonism (performed at Eurofins Panlabs Taiwan, Ltd.) was determined in the same model as described above in Ex. 117. without prior stimulation with 5-HT. The agonistic response is expressed as % of the IP-1 accumulation induced by 5-HT (1 uM) stimulation.

A further test deals with TNF-α plasma levels. The test is described as follows: Reduction of TNF-α plasma levels in LPS-induced acute inflammation in mice. The test is classed as in vivo, mice (BALB/c). Conditions: for TNF-α: plasma 90 min after LPS. As for the experimental part:
Reduction of TNF-α plasma levels in the LPS-induced acute inflammation in mice was used to determine the in vivo anti-inflammatory properties of the compounds.
Mice (BALB/c, female, approx. 20 g, 8 mice/group) were treated with the test compound perorally (10 or 30 mg/kg in water) 30 min prior to LPS treatment (10 ug in saline, intraperitoneally, serotype 055:B5). Alternatively, the test compound was administered subcutaneously in the neck (10 or 30 mg/kg in 10% PEG400 in saline) 15 min prior to LPS treatment. Blood samples were collected 90 min after LPS treatment and plasma TNF-α concentrations were determined in duplicates by ELISA.

Test [2] addresses T1, 5-HT2B receptor. The experiment in a line: 5-HT2B receptor binding, 3H-LSD ligand displacement assay. Particulars: for inhibition at 0.01 µM: 0.01 uM compound; for inhibition at 0.1 µM: 0.1 uM compound; for inhibition at 1 µM: 1 uM compound; for inhibition at 10 µM: 10 uM compound; for inhibition at 0.001 µM: 0.001 uM compound. As for the experimental part:
5-HT2B receptor binding (performed at Eurofins Panlabs Taiwan, Ltd.) to human receptor protein expressed in CHO-K1 cells was determined in a ligand displacement assay using ^3H-lysergic acid diethylamide (LSD) as radioligand and ketanserine as a standard reference compound. Data is presented as % displacement of radioligand at indicated compound concentrations, see Table 1 and Table 2.

Test [3] concerns the target T1, 5-HT2B receptor. The test is described as follows: 5-HT2B receptor antagonism, inhibition of 5-HT stimulated IP-1 accumulation (HTRF) in CHO-K1 cells. Conditions: % inhibition of 5-HT (5 nM) induced effect. The test is classed as cell-based. As for the experimental part:
as §1

In test [4] the test system is bleomycin-induced pulmonary fibrosis. The experiment in a line: Bleomycin-induced pulmonary fibrosis model in mice. The test is classed as in vivo, mice (C57BL/6). Particulars: 28 days. As for the experimental part:
Pulmonary fibrosis was induced in female C57BL/6 mice by intratracheal instillation of bleomycin in saline (50 uL, 0.5 mg/mL). Treatment was initiated at the day of intratracheal instillation and continued to day 28. The mice (8 animals/group) were orally treated twice daily with 25 or 75 mg/kg (R)-3-(2-Hydroxyphenyl)-4-methyl-4,5-dihydro-1H-pyrazole-1-carboximidamide (Example 36, Compound 3) dissolved in ddH2O. Nintedanib at 30 mg/kg in ddH2O, p.o., twice daily, was used as a positive control. Vehicle-treated bleomycin-challenged mice and vehicle-treated non-fibrotic mice served as controls. The animals were sacrificed after 28 days and the fibrotic area of the lung was determined by histological evaluation of Sirius Red-stained sections according to standard protocol. The collagen content of lung tissue was measured using the hydroxyproline collagen assay and the number of myofibroblasts was quantified by staining for α-smooth muscle actin (α-SMA) in paraffin embedded sections.

The test system of test [5] is Normal human lung fibroblasts (NHLF). The test is described as follows: Collagen production in normal human lung fibroblasts (PIP ELISA). The class given is cell-based. Conditions: 1 and 10 μM; stimulation with 5 ng/mL TGF-β1 and 5-HT; 48 hours. Here is the method: Normal human lung fibroblasts (NHLF, Lonza) were cultured in FGM-2 full medium (+FBS) according to manufacturer's instructions. When confluent, cells were seeded onto 24-well tissue culture plates at 100.000 cells/well (4 wells per condition), until reaching confluence. Once cells were confluent they were serum starved overnight in serum free FGM-2 medium. After 16 hours the serum free medium was removed and cells were treated with (R)-3-(2-hydroxyphenyl)-4-methyl-4,5-dihydro-1H-pyrazole-1-carboximidamide (Example 36, Compound 3) at 1 and 10 μM (vehicle ddH2O). The cells were then stimulated with 5 ng/mL human recombinant TGF-β1 alone or in combination with 1 μM or 10 μM 5-HT. All stimuli were prepared in serum free FGM-2 media (1 mL volume/well). Unstimulated cells received serum free FGM-2 medium alone. After 48 hours the supernatants were collected and stored at −80° C. Collagen production was analyzed in supernatants using procollagen type I C-peptide (PIP) ELISA (Takara Bio # MK1010). Cell viability was tested using a LDH assay (Abcam # Ab102526).

We go through nine compounds from US10544103B2, “5-HT2 antagonists” (ANAMAR AB, priority 2015, dated 2020).

T1 sequence (P41595 whole entry): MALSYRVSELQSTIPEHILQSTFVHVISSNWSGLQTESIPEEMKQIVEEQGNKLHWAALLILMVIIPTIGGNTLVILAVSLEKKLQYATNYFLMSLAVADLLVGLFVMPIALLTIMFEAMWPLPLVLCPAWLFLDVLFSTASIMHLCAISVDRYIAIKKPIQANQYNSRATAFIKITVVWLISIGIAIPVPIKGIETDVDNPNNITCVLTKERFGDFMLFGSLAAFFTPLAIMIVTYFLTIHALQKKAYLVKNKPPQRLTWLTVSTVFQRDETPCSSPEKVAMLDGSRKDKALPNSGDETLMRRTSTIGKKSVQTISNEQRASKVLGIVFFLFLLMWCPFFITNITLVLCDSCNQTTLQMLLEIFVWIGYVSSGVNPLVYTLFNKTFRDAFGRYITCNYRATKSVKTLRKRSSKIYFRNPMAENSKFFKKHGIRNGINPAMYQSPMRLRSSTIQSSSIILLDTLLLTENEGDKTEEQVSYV

Take `CC1CN(C(=N)N)N=C1c1ccccc1O.Cl` (centres unmarked) [Example 17, 3-(2-Hydroxyphenyl)-4-methyl-4,5-dihydro-1H-pyrazole-1-carboximidamide]: on 5-HT2B receptor [1], the activation at 0.001 µM is 1%, the activation at 0.01 µM was 3%, the activation at 0.1 µM is 7% and the activation at 1 µM was determined as 2%. Besides, on 5-HT2B receptor [1], the activation at 10 µM was -2%. Further, the “TNF-α” value in the test with TNF-α plasma levels (10 mg/kg p.o. (water)) is recorded as 4139 pg/mL. Besides, the “TNF-α” value with TNF-α plasma levels (10 mg/kg s.c. (PEG400/saline)) amounted to 2708 pg/mL. In addition, the “TNF-α” value in the test with TNF-α plasma levels (30 mg/kg p.o. (water)) was 4062 pg/mL. Besides, the “TNF-α” value in the test with TNF-α plasma levels (30 mg/kg s.c. (PEG400/saline)) is reported as 1397 pg/mL. In the test on TNF-α plasma levels (p.o. administration), the “Effect on TNF-α plasma levels (in words)” value is given as “reduced TNF-α levels”. Further, the “Effect on TNF-α plasma levels (in words)” value with TNF-α plasma levels (subcutaneous (s.c.) administration) was “dose-dependent effects”. In addition, in the test with TNF-α plasma levels (versus RS127545 (so in the source)), the “Anti-inflammatory effect compared with the reference compound” value is listed as “equal or higher anti-inflammatory effects”. At 5-HT2B receptor [2], the inhibition (in general, the drop in the measured response relative to a control, in per cent) at 0.01 µM was found to be 54%; the inhibition at 0.1 µM was 91%; the inhibition at 1 µM came out at 100%; the inhibition at 10 µM is 100%. Besides, at 5-HT2B receptor [3], the inhibition at 0.001 µM is 31%, the inhibition at 0.01 µM turned out to be 70%, the inhibition at 0.1 µM was 96% and the inhibition at 1 µM was 100%. For the same compound, the inhibition at 10 µM against 5-HT2B receptor [3] was found to be 103%.

For the compound `C[C@@H]1CN(C(=N)N)N=C1c1ccccc1O` (single isomer, unassigned) [Example 38], at 5-HT2B receptor [1], the activation at 0.0001 µM is -2%, the activation at 0.001 µM is -1%, the activation at 0.01 µM was -2% and the activation at 0.1 µM was determined as 0%. At 5-HT2B receptor [1], the activation at 1 µM is -2%. At 5-HT2B receptor [2], the inhibition at 0.001 µM stood at 19%, the inhibition at 0.01 µM was found to be 76%, the inhibition at 0.1 µM worked out at 98% and the inhibition at 1 µM was 102%. In addition, the inhibition at 10 µM on 5-HT2B receptor [2] was 104%. For the same compound, on 5-HT2B receptor [3], the inhibition at 0.0001 µM came out at 23%, the inhibition at 0.001 µM stood at 27%, the inhibition at 0.01 µM worked out at 75% and the inhibition at 0.1 µM came out at 100%. Besides, the inhibition at 1 µM on 5-HT2B receptor [3] was found to be 102%.

Regarding `N=C(NCc1ccccc1)N1CCC(c2ccccc2Cl)=N1` [Example 21, N-Benzyl-3-(2-chlorophenyl)-4,5-dihydro-1H-pyrazole-1-carboximidamide], on 5-HT2B receptor [1], the activation at 0.001 µM is 3%, the activation at 0.01 µM is -5%, the activation at 0.1 µM was -9% and the activation at 1 µM is -6%. Further, on 5-HT2B receptor [1], the activation at 10 µM is -13%. Besides, on 5-HT2B receptor [2], the inhibition at 0.1 µM is 59% and the inhibition at 1 µM was found to be 96%. Moreover, on 5-HT2B receptor [3], the inhibition at 0.001 µM is -6%, the inhibition at 0.01 µM came to 10%, the inhibition at 0.1 µM amounted to 41% and the inhibition at 1 µM came out at 104%. Besides, the inhibition at 10 µM on 5-HT2B receptor [3] was found to be 113%.

Take `COC(=O)c1ccc2c(c1)NC(=O)/C2=C(\Nc1ccc(N(C)C(=O)CN2CCN(C)CC2)cc1)c1ccccc1` [Nintedanib, reference compound]: in test [4] (30 mg/kg bid p.o.), the “Fibrotic area (A)” value is given as “reduced the fibrotic area”, the “Hydroxyproline content (C)” value was “reduced the hydroxyproline content” and the “Myofibroblast differentiation (B)” value was “inhibited myofibroblast differentiation”.

`N=C(NCc1ccccc1)N1CCC(c2ccccc2O)=N1` [Example 22, N-Benzyl-3-(2-hydroxyphenyl)-4,5-dihydro-1H-pyrazole-1-carboximidamide]: at 5-HT2B receptor [1], the activation at 0.001 µM was -5%, the activation at 0.01 µM was -10%, the activation at 0.1 µM is -1% and the activation at 1 µM was -3%. In addition, on 5-HT2B receptor [1], the activation at 10 µM was -2%. Further, on 5-HT2B receptor [2], the inhibition at 0.1 µM was 89% and the inhibition at 1 µM worked out at 102%. On 5-HT2B receptor [3], the inhibition at 0.001 µM was found to be 14%, the inhibition at 0.01 µM was found to be 28%, the inhibition at 0.1 µM worked out at 88% and the inhibition at 1 µM stood at 108%. Moreover, the inhibition at 10 µM on 5-HT2B receptor [3] was determined as 110%.

`C[C@@H]1CN(C(=N)N)N=C1c1cccc(Cl)c1O` (single isomer, unassigned) [Example 73, (R)*-3-(3-chloro-2-hydroxyphenyl)-4-methyl-4,5-dihydro-1H-pyrazole-1-carboximidamide]: at 5-HT2B receptor [1], the activation at 0.0001 µM was 3%, the activation at 0.001 µM turned out to be 4%, the activation at 0.01 µM was found to be 3% and the activation at 0.1 µM was found to be 3%. Moreover, at 5-HT2B receptor [2], the inhibition at 0.001 µM came to 49%, the inhibition at 0.01 µM came out at 83% and the inhibition at 0.1 µM is 99%. Further, on 5-HT2B receptor [3], the inhibition at 0.0001 µM turned out to be 29%, the inhibition at 0.001 µM came out at 87%, the inhibition at 0.01 µM was 97% and the inhibition at 0.1 µM came out at 97%. On 5-HT2B receptor [3], the inhibition at 1 µM was 98%.

`Cl.N=C(N)N1CCC(c2ccccc2O)=N1` [Example 3, 3-(2-Hydroxyphenyl)-4,5-dihydro-1H-pyrazole-1-carboximidamide]: on 5-HT2B receptor [1], the activation at 0.01 µM came to 1%, the activation at 0.1 µM is -2%, the activation at 1 µM is -2% and the activation at 10 µM was -7%. Moreover, the “TNF-α” value with TNF-α plasma levels (10 mg/kg p.o. (water)) turned out to be 5767 pg/mL. The “TNF-α” value in the test with TNF-α plasma levels (30 mg/kg p.o. (water)) is 3992 pg/mL. Besides, the “Effect on TNF-α plasma levels (in words)” value in the test on TNF-α plasma levels (p.o. administration) was “dose-dependently reduced TNF-α plasma levels”. At 5-HT2B receptor [3], the inhibition at 0.01 µM turned out to be 14%, the inhibition at 0.1 µM is 38%, the inhibition at 1 µM is 96% and the inhibition at 10 µM was determined as 103%.

With `CC(C)c1cc(-c2ccc(F)c3ccccc23)nc(N)n1` [RS127445, reference compound], the “TNF-α” value in the test on TNF-α plasma levels (10 mg/kg s.c. (PEG400/saline)) was determined as 3215 pg/mL.

`C[C@@H]1CN(C(=N)N)N=C1c1ccccc1O` (single isomer, unassigned) [Example 36]: the “Production of collagens (in words)” value in test [5] was “significantly reduced the production of collagens”. Also, the “Changes in any of the outcomes (fibrotic area, myofibroblasts, hydroxyproline)” value in test [4] (25 mg/kg bid oral) is reported as “No statistically significant changes”. Moreover, in test [4] (75 mg/kg bid oral), the “Fibrotic area (A)” value is reported as “reduced the fibrotic area”, the “Hydroxyproline content (C)” value is reported as “reduced the hydroxyproline content” and the “Myofibroblast differentiation (B)” value is on record as “inhibited myofibroblast differentiation”.
